Patent publication US20070128217A1 (priority 2003, published 2007)

Columns and labels:
[1] = system: antibodies in sera from SARS patients (sera 1a, 1b, 2, 6, 37, 62, London, SARS-yellow, SARS-green); assay type: binding, human
[2] = system: control sera (pooled serum of ten healthy LUMC hospital workers; commercial negative donor pooled serum from the Dutch bloodbank); assay type: binding, human
[3] = system: rabbit serum obtained by immunizing a rabbit with the SARS-CoV strain Frankfurt 1; assay type: binding; design: Binding of a rabbit serum to linear peptides / Binding of a rabbit serum to looped peptides / Rabbit serum linear peptides / Rabbit serum looped peptides / Binding of a rabbit serum to linear peptides of protein N of SARS-CoV Urbani (Rabbit serum linear peptides) / Binding of a rabbit serum to looped/cyclic peptides of protein N of SARS-CoV Urbani (Rabbit serum looped peptides): unit not given here

Row | Sequence | Binding of serum 1a to linear peptides of protein E of SARS-CoV Urbani [1] | Binding of serum 1a to looped/cyclic peptides of protein E of SARS-CoV Urbani [1] | Binding of serum 1b to linear peptides of protein E of SARS-CoV Urbani [1] | Binding of serum 1b to looped/cyclic peptides of protein E of SARS-CoV Urbani [1] | Binding of serum 2 to linear peptides of protein E of SARS-CoV Urbani [1] | Binding of serum 2 to looped/cyclic peptides of protein E of SARS-CoV Urbani [1] | Binding of serum 6 to linear peptides of protein E of SARS-CoV Urbani [1] | Binding of serum 6 to looped/cyclic peptides of protein E of SARS-CoV Urbani [1] | Binding of serum 37 to linear peptides of protein E of SARS-CoV Urbani [1] | Binding of serum 37 to looped/cyclic peptides of protein E of SARS-CoV Urbani [1] | Binding of serum 62 to linear peptides of protein E of SARS-CoV Urbani [1] | Binding of serum 62 to looped/cyclic peptides of protein E of SARS-CoV Urbani [1] | Binding of serum London to linear peptides of protein E of SARS-CoV Urbani [1] | Binding of serum London to looped/cyclic peptides of protein E of SARS-CoV Urbani [1] | Binding of serum SARS-green to linear peptides of protein E of SARS-CoV Urbani [1] | Binding of serum SARS-green to looped/cyclic peptides of protein E of SARS-CoV Urbani [1] | Binding of serum SARS-yellow to linear peptides of protein E of SARS-CoV Urbani [1] | Binding of serum SARS-yellow to looped/cyclic peptides of protein E of SARS-CoV Urbani [1] | Binding of Control Serum Blood-Bank to Looped peptides [2] | Binding of Control serum Blood-bank to linear peptides [2] | other results
1 | LLFLAFVVFLLVTLA | 0.8 | 0.7 | 0.6 | 0.4 | 0.5 | 0.6 | 0.7 | 0.4 | 0.7 | 0.7 | 0.7 | 0.7 | 0.5 | 0.4 | 0.4 | 0.4 | 0.2 | 0.7 | 0.5 | 0.6 | Binding of Control serum LUMC to linear peptides [2]: 0.4; Binding of Control serum LUMC to looped peptides [2]: 0.7; Binding of a rabbit serum to linear peptides [3]: 0.6; Binding of a rabbit serum to looped peptides [3]: 0.4
2 | MYSFVSEETGTLIVN | 0.8 | 0.7 | 0.8 | 0.5 | 0.6 | 0.6 | 0.6 | 0.5 | 0.8 | 0.7 | 0.8 | 0.8 | 0.6 | 0.4 | 0.6 | 0.4 | 0.1 | 0.8 | 0.6 | 0.8 | Binding of Control serum LUMC to linear peptides [2]: 0.7; Binding of Control serum LUMC to looped peptides [2]: 0.8; Binding of a rabbit serum to linear peptides [3]: 0.5; Binding of a rabbit serum to looped peptides [3]: 0.2
3 | NSVLLFLAFVVFLLV | 0.8 | 0.6 | 0.6 | 0.5 | 0.6 | 0.6 | 0.9 | 0.4 | 0.7 | 0.7 | 0.7 | 0.7 | 0.6 | 0.3 | 0.3 | 0.4 | 0.2 | 0.7 | 0.6 | 0.7 | Binding of Control serum LUMC to linear peptides [2]: 0.7; Binding of Control serum LUMC to looped peptides [2]: 0.8; Binding of a rabbit serum to linear peptides [3]: 0.6; Binding of a rabbit serum to looped peptides [3]: 0.6
4 | RLCAYCCNIVNVSLV | 0.6 | 0.7 | 0.5 | 0.7 | 0.6 | 0.7 | 0.4 | 0.7 | 0.5 | 0.6 | 0.4 | 0.8 | 0.5 | 0.5 | 0.5 | 0.8 | 0.2 | 0.6 | 0.7 | 0.8 | Binding of Control serum LUMC to linear peptides [2]: 0.6; Binding of Control serum LUMC to looped peptides [2]: 0.8; Binding of a rabbit serum to linear peptides [3]: 0.4; Binding of a rabbit serum to looped peptides [3]: 0.2
5 | SVLLFLAFVVFLLVT | 0.8 | 0.6 | 0.7 | 0.5 | 0.5 | 0.5 | 0.9 | 0.4 | 0.8 | 0.6 | 0.7 | 0.6 | 0.5 | 0.4 | 0.5 | 0.6 | 0.3 | 0.6 | 0.6 | 0.7 | Binding of Control serum LUMC to linear peptides [2]: 0.5; Binding of Control serum LUMC to looped peptides [2]: 0.7; Binding of a rabbit serum to linear peptides [3]: 0.6; Binding of a rabbit serum to looped peptides [3]: 0.2
